Measurements taken from ChEMBL document CHEMBL1201861, “Genomics of Drug Sensitity in Cancer screening data, Wellcome Trust Sanger Institute”.
pIC50: −log10 of the molar value.

Columns and labels:
Test in all cases: cells
MOLT-16 = assay type: functional, cell-based; settings: Homo sapiens;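 also: growth inhibition of human MOLT-16 cells, read out with a cell viability assay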
Description: SANGER: Inhibition of human MOLT-16 cell growth in a cell viability assay.

TGBC1TKB = assay type: functional, cell-based, Homo sapiens; settings: Homo sapiens, TGBC1TKB;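 also: growth inhibition of TGBC1TKB cells, read out by a cell viability assay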
Description: SANGER: Inhibition of human TGBC1TKB cell growth in a cell viability assay.

SW684 = assay type: functional, cell-based, Homo sapiens; settings: Homo sapiens, SW684;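 also: growth inhibition of human SW684 cells, measured by a cell viability assay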
Description: SANGER: Inhibition of human SW684 cell growth in a cell viability assay.

Calu-6 = assay type: functional, cell-based, Homo sapiens; settings: Homo sapiens, Calu-6;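 also: growth of human Calu-6 cells, read out by a cell viability assay, IC50 marking inhibition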
Description: SANGER: Inhibition of human Calu-6 cell growth in a cell viability assay.

SW1088 = assay type: functional, cell-based, Homo sapiens; settings: Homo sapiens, SW1088;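 also: growth inhibition of human SW1088 cells, read out by a cell viability assay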
Description: SANGER: Inhibition of human SW1088 cell growth in a cell viability assay.

NCI-H2170 = assay type: functional, cell-based, Homo sapiens; settings: Homo sapiens, NCI-H2170;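 also: cell viability assay measuring growth inhibition of human NCI-H2170 cancer cells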
Description: SANGER: Inhibition of human NCI-H2170 cell growth in a cell viability assay.

NOMO-1 = assay type: functional, cell-based; settings: Homo sapiens;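 also: growth inhibition of human NOMO-1 cells measured by a cell viability assay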
Description: SANGER: Inhibition of human NOMO-1 cell growth in a cell viability assay.

J-RT3-T3-5 = assay type: functional, cell-based; settings: Homo sapiens;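 also: cell viability assay measuring growth inhibition of human J-RT3-T3-5 cells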
Description: SANGER: Inhibition of human J-RT3-T3-5 cell growth in a cell viability assay.

MZ2-MEL = assay type: functional, cell-based, Homo sapiens; settings: Homo sapiens, MZ2-MEL;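 also: growth inhibition of MZ2-MEL cells read out with a cell viability assay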
Description: SANGER: Inhibition of human MZ2-MEL cell growth in a cell viability assay.

NCI-H1092 = assay type: functional, cell-based; settings: Homo sapiens;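 also: cell growth inhibition measured with a cell viability assay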
Description: SANGER: Inhibition of human NCI-H1092 cell growth in a cell viability assay.

MS-1 = assay type: functional, cell-based; settings: Homo sapiens;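 also: growth inhibition of MS-1 cells, read out by cell viability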
Description: SANGER: Inhibition of human MS-1 cell growth in a cell viability assay.

SF-539 = assay type: functional, cell-based, Homo sapiens; settings: Homo sapiens, SF-539;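 also: Read-out is a cell viability assay, with IC50 reflecting inhibition of cell growth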
Description: SANGER: Inhibition of human SF539 cell growth in a cell viability assay.

HT = assay type: functional, cell-based; settings: Homo sapiens
Description: SANGER: Inhibition of human HT cell growth in a cell viability assay.

HSC-2 = assay type: functional, cell-based, Homo sapiens; settings: Homo sapiens, HSC-2;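 also: growth inhibition of human HSC-2 cells, read out by a cell viability assay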
Description: SANGER: Inhibition of human HSC-2 cell growth in a cell viability assay.

TCC-SUP = assay type: functional, cell-based, Homo sapiens; settings: Homo sapiens, TCC-SUP;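 also: growth inhibition of TCC-SUP cells, read out with a cell viability assay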
Description: SANGER: Inhibition of human TCCSUP cell growth in a cell viability assay.

BT-20 = assay type: functional, cell-based, Homo sapiens; settings: Homo sapiens, BT-20;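 also: cell viability assay measuring suppression of growth in human BT-20 cells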
Description: SANGER: Inhibition of human BT-20 cell growth in a cell viability assay.

SAOS-2 = assay type: functional, cell-based, Homo sapiens; settings: Homo sapiens, SAOS-2;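 also: growth inhibition of human Saos-2 cells determined by a cell viability assay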
Description: SANGER: Inhibition of human Saos-2 cell growth in a cell viability assay.

NUGC-3 = assay type: functional, cell-based, Homo sapiens; settings: Homo sapiens, NUGC-3;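 also: growth inhibition of human NUGC-3 cells, read out with a cell viability assay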
Description: SANGER: Inhibition of human NUGC-3 cell growth in a cell viability assay.

OVCAR-5 = assay type: functional, cell-based, Homo sapiens; settings: Homo sapiens, OVCAR-5;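 also: growth inhibition of human OVCAR-5 cells, read out with a cell viability assay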
Description: SANGER: Inhibition of human OVCAR-5 cell growth in a cell viability assay.

SK-UT-1 = assay type: functional, cell-based, Homo sapiens; settings: Homo sapiens, SK-UT-1;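 also: growth inhibition of SK-UT-1 cells, measured by a cell viability assay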
Description: SANGER: Inhibition of human SK-UT-1 cell growth in a cell viability assay.

LXF-289 cell line = assay type: functional, cell-based, Homo sapiens; settings: Homo sapiens, LXF-289
Description: SANGER: Inhibition of human LXF-289 cell growth in a cell viability assay.

SCC-15 = assay type: functional, cell-based, Homo sapiens; settings: Homo sapiens, SCC-15;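 also: growth inhibition of SCC-15 cells, read out with a cell viability assay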
Description: SANGER: Inhibition of human SCC-15 cell growth in a cell viability assay.

HT-144 = assay type: functional, cell-based, Homo sapiens; settings: Homo sapiens, HT-144
Description: SANGER: Inhibition of human HT-144 cell growth in a cell viability assay.

HPAF-II = assay type: functional, cell-based, Homo sapiens; settings: Homo sapiens, HPAF-II;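 also: growth inhibition of HPAF-II cells, read out with a cell viability assay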
Description: SANGER: Inhibition of human HPAF-II cell growth in a cell viability assay.

NKM-1 = assay type: functional, cell-based; settings: Homo sapiens;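 also: growth inhibition of NKM-1 cells, read out with a cell viability assay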
Description: SANGER: Inhibition of human NKM-1 cell growth in a cell viability assay.

MSTO-211H = assay type: functional, cell-based, Homo sapiens; settings: Homo sapiens, MSTO-211H
Description: SANGER: Inhibition of human MSTO-211H cell growth in a cell viability assay.

MHH-NB-11 = assay type: functional, cell-based, Homo sapiens; settings: Homo sapiens, MHH-NB-11;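 also: growth inhibition of human MHH-NB-11 cells, read out by a cell viability assay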
Description: SANGER: Inhibition of human MHH-NB-11 cell growth in a cell viability assay.

CAL-54 = assay type: functional, cell-based, Homo sapiens; settings: Homo sapiens, CAL-54;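 also: growth inhibition of CAL-54 cells, read out by a viability measurement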
Description: SANGER: Inhibition of human CAL-54 cell growth in a cell viability assay.

VMRC-RCZ = assay type: functional, cell-based; settings: Homo sapiens;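 also: growth inhibition measured with a cell viability assay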
Description: SANGER: Inhibition of human VMRC-RCZ cell growth in a cell viability assay.

YAPC = assay type: functional, cell-based, Homo sapiens; settings: Homo sapiens, YAPC;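 also: growth inhibition of YAPC cells, measured with a cell viability assay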
Description: SANGER: Inhibition of human YAPC cell growth in a cell viability assay.

RPMI-8866 = assay type: functional, cell-based; settings: Homo sapiens
Description: SANGER: Inhibition of human RPMI-8866 cell growth in a cell viability assay.

NCI-H650 = assay type: functional, cell-based, Homo sapiens; settings: Homo sapiens, NCI-H650;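 also: growth inhibition of NCI-H650 cells, read out by a viability assay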
Description: SANGER: Inhibition of human NCI-H650 cell growth in a cell viability assay.

A253 cell line = assay type: functional, cell-based, Homo sapiens; settings: Homo sapiens, A253;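 also: growth inhibition of A253 cells, read out with a cell viability assay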
Description: SANGER: Inhibition of human A253 cell growth in a cell viability assay.

U-251 = assay type: functional, cell-based, Homo sapiens; settings: Homo sapiens, U-251;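 also: growth inhibition of human U-251 cells, read out through a cell viability assay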
Description: SANGER: Inhibition of human U251 cell growth in a cell viability assay.

JEG-3 = assay type: functional, cell-based, Homo sapiens; settings: Homo sapiens, JEG-3;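 also: growth inhibition of human JEG-3 cells, read out with a cell viability assay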
Description: SANGER: Inhibition of human JEG-3 cell growth in a cell viability assay.

LCLC-97TM1 = assay type: functional, cell-based, Homo sapiens; settings: Homo sapiens, LCLC-97TM1;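 also: cell viability assay measuring growth inhibition of human LCLC-97TM1 cells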
Description: SANGER: Inhibition of human LCLC-97TM1 cell growth in a cell viability assay.

BXPC-3 = assay type: functional, cell-based, Homo sapiens; settings: Homo sapiens, BXPC-3;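 also: growth inhibition of human BxPC-3 cells, read out by a cell viability assay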
Description: SANGER: Inhibition of human BxPC-3 cell growth in a cell viability assay.

FTC-133 = assay type: functional, cell-based, Homo sapiens; settings: Homo sapiens, FTC-133
NCI-H1355 = assay type: functional, cell-based, Homo sapiens; settings: Homo sapiens, NCI-H1355;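 also: growth inhibition of human NCI-H1355 cells, read out by a cell viability assay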
Description: SANGER: Inhibition of human NCI-H1355 cell growth in a cell viability assay.

TE-6 = assay type: functional, cell-based, Homo sapiens; settings: Homo sapiens, TE-6;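 also: growth inhibition of TE-6 cells, read out with a cell viability assay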
Description: SANGER: Inhibition of human TE-6 cell growth in a cell viability assay.

BPH-1 = assay type: functional, cell-based, Homo sapiens; settings: Homo sapiens, BPH-1;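 also: cell viability assay measuring growth inhibition of human BPH-1 cells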
Description: SANGER: Inhibition of human BPH-1 cell growth in a cell viability assay.

ME-180 = assay type: functional, cell-based; settings: Homo sapiens;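 also: cell viability assay measuring growth inhibition of ME-180 cells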
Description: SANGER: Inhibition of human ME-180 cell growth in a cell viability assay.

MPP-89 = assay type: functional, cell-based, Homo sapiens; settings: Homo sapiens, MPP-89;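 also: growth inhibition of human MPP-89 cells, read out with a cell viability assay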
Description: SANGER: Inhibition of human MPP-89 cell growth in a cell viability assay.

MFE-280 = assay type: functional, cell-based, Homo sapiens; settings: Homo sapiens, MFE-280;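 also: growth inhibition of MFE-280 cells, determined with a cell viability readout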
Description: SANGER: Inhibition of human MFE-280 cell growth in a cell viability assay.

KYSE-180 = assay type: functional, cell-based, Homo sapiens; settings: Homo sapiens, KYSE-180;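 also: growth inhibition of KYSE-180 cells, read out with a cell viability assay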
Description: SANGER: Inhibition of human KYSE-180 cell growth in a cell viability assay.

TE-5 = assay type: functional, cell-based, Homo sapiens; settings: Homo sapiens, TE-5;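 also: inhibition of cell growth, read out by a cell viability assay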
Description: SANGER: Inhibition of human TE-5 cell growth in a cell viability assay.

CAPAN-1 = assay type: functional, cell-based, Homo sapiens; settings: Homo sapiens, CAPAN-1;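 also: growth suppression of CAPAN-1 cells, read out by a cell viability assay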
Description: SANGER: Inhibition of human CAPAN-1 cell growth in a cell viability assay.

NCI-H1838 = assay type: functional, cell-based, Homo sapiens; settings: Homo sapiens, NCI-H1838;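 also: growth inhibition of NCI-H1838 cells, determined with a cell viability readout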
Description: SANGER: Inhibition of human NCI-H1838 cell growth in a cell viability assay.

SCH = assay type: functional, cell-based, Homo sapiens; settings: Homo sapiens, SCH;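 also: growth inhibition of human SCH cells, read out in a cell viability assay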
Description: SANGER: Inhibition of human SCH cell growth in a cell viability assay.

769-P = assay type: functional, cell-based, Homo sapiens; settings: Homo sapiens, 769-P
Description: SANGER: Inhibition of human 769-P cell growth in a cell viability assay.

CP50-MEL-B = assay type: functional, cell-based, Homo sapiens; settings: Homo sapiens, CP50-MEL-B;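 also: growth inhibition of the human cell line, measured with a cell viability read-out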
Description: SANGER: Inhibition of human CP50-MEL-B cell growth in a cell viability assay.

SMILES: Cn1cncc1[C@@](N)(c1ccc(Cl)cc1)c1ccc2c(c1)c(-c1cccc(Cl)c1)cc(=O)n2C [TIPIFARNIB]
- pIC50 (MOLT-16): 6.59
- pIC50 (TGBC1TKB): < 4.80
- pIC50 (SW684): < 4.80
- pIC50 (Calu-6): 5.89
- pIC50 (SW1088): 5.07
- pIC50 (NCI-H2170): 5.08
- pIC50 (NOMO-1): < 4.80
- pIC50 (J-RT3-T3-5): 5.88
- pIC50 (MZ2-MEL): 5.72
- pIC50 (NCI-H1092): < 4.80
- pIC50 (MS-1): < 4.80
- pIC50 (SF-539): < 4.80
- pIC50 (HT): 5.08
- pIC50 (HSC-2): 5.28
- pIC50 (TCC-SUP): 5.24
- pIC50 (BT-20): < 4.80
- pIC50 (SAOS-2): < 4.80
- pIC50 (NUGC-3): 5.38
- pIC50 (OVCAR-5): < 4.80
- pIC50 (SK-UT-1): 5.31
- pIC50 (LXF-289 cell line): 5.38
- pIC50 (SCC-15): 4.97
- pIC50 (HT-144): 5.84
- pIC50 (HPAF-II): 5.12
- pIC50 (NKM-1): 6.11
- pIC50 (MSTO-211H): < 4.80
- pIC50 (MHH-NB-11): < 4.80
- pIC50 (CAL-54): 4.92
- pIC50 (VMRC-RCZ): 5.50
- pIC50 (YAPC): < 4.80
- pIC50 (RPMI-8866): < 4.80
- pIC50 (NCI-H650): 6.11
- pIC50 (A253 cell line): 4.98
- pIC50 (U-251): 5.15
- pIC50 (JEG-3): 5.07
- pIC50 (LCLC-97TM1): 5.64
- pIC50 (BXPC-3): 5.36
- pIC50 (FTC-133): < 4.80
- pIC50 (NCI-H1355): 6.01
- pIC50 (TE-6): 5.14
- pIC50 (BPH-1): 5.65
- pIC50 (ME-180): 4.84
- pIC50 (MPP-89): < 4.80
- pIC50 (MFE-280): < 4.80
- pIC50 (KYSE-180): 5.47
- pIC50 (TE-5): 4.93
- pIC50 (CAPAN-1): < 4.80
- pIC50 (NCI-H1838): < 4.80
- pIC50 (SCH): < 4.80
- pIC50 (769-P): 5.38
- pIC50 (CP50-MEL-B): < 4.80

SMILES: CCC1=C[C@@H]2CN(C1)Cc1c([nH]c3ccccc13)[C@@](C(=O)OC)(c1cc3c(cc1OC)N(C)[C@H]1[C@@](O)(C(=O)OC)[C@H](OC(C)=O)[C@]4(CC)C=CCN5CC[C@]31[C@@H]54)C2 [VINORELBINE]
- pIC50 (MOLT-16): 7.89
- pIC50 (TGBC1TKB): < 7.19
- pIC50 (SW684): 7.62
- pIC50 (Calu-6): 8.24
- pIC50 (SW1088): < 7.19
- pIC50 (NCI-H2170): 7.94
- pIC50 (NOMO-1): 7.72
- pIC50 (J-RT3-T3-5): 8.17
- pIC50 (MZ2-MEL): 7.37
- pIC50 (NCI-H1092): 7.24
- pIC50 (MS-1): < 7.19
- pIC50 (SF-539): 7.85
- pIC50 (HT): 7.67
- pIC50 (HSC-2): 8.65
- pIC50 (TCC-SUP): 7.57
- pIC50 (BT-20): 7.91
- pIC50 (SAOS-2): < 7.19
- pIC50 (NUGC-3): 8.22
- pIC50 (OVCAR-5): < 7.19
- pIC50 (SK-UT-1): 8.65
- pIC50 (LXF-289 cell line): 8.33
- pIC50 (SCC-15): 8.06
- pIC50 (HT-144): 9.23
- pIC50 (HPAF-II): 7.78
- pIC50 (NKM-1): 8.30
- pIC50 (MSTO-211H): < 7.19
- pIC50 (MHH-NB-11): 7.75
- pIC50 (CAL-54): < 7.19
- pIC50 (VMRC-RCZ): 7.73
- pIC50 (YAPC): < 7.19
- pIC50 (RPMI-8866): 8.16
- pIC50 (NCI-H650): 7.79
- pIC50 (A253 cell line): 8.91
- pIC50 (U-251): 8.16
- pIC50 (JEG-3): 7.85
- pIC50 (LCLC-97TM1): 8.81
- pIC50 (BXPC-3): 8.41
- pIC50 (FTC-133): < 7.19
- pIC50 (NCI-H1355): 8.54
- pIC50 (TE-6): < 7.19
- pIC50 (BPH-1): 8.72
- pIC50 (ME-180): 7.68
- pIC50 (MPP-89): < 7.19
- pIC50 (MFE-280): < 7.19
- pIC50 (KYSE-180): 8.15
- pIC50 (TE-5): 7.93
- pIC50 (CAPAN-1): 7.85
- pIC50 (NCI-H1838): < 7.19
- pIC50 (SCH): < 7.19
- pIC50 (769-P): 7.77
- pIC50 (CP50-MEL-B): 7.36
